Experimental data reported in patent US4670457A, “2H-benzofuran-3-one-derivatives and process for their preparation” (Farmitalia Carlo Erba, S.p.A., priority 1978, dated 1987).

Experiment: Seven days indicative acute toxicity after oral administration
Details: mouse, in vivo, mice
Description: The tested compounds were administered per os (p.o.) 15 minutes before the administration of the antigen: at least 6 rats were used for each dose. Seven days indicative acute toxicity after oral administration was assessed for the compounds of the invention, for example, a LD50 >800 mg/kg in mice was obtained for all the following compounds of the invention: […]

Structure (SMILES)	LD50 at 168 h [mg/kg]
CC(C)Oc1ccccc1C=C1Oc2ccc(C(=O)O)cc2C1=O [5-carboxy-2-(2'-isopropoxy-benzylidene)-2H-benzofuran-3-one]	> 800
COc1ccccc1C=C1Oc2ccc(C(=O)O)cc2C1=O [5-carboxy-2-(2'-methoxy-benzylidene)-2H-benzofuran-3-one]	> 800
O=C(O)c1ccc2c(c1)C(=O)C(=Cc1cccs1)O2 [5-carboxy-2-(2'-thenylidene)-2H-benzofuran-3-one]	> 800
COc1ccc(C=C2Oc3ccc(C(=O)O)cc3C2=O)cc1OC [5-carboxy-2-(3',4'-dimethoxy-benzylidene)-2H-benzofuran-3-one]	> 800
CC(C)Oc1cccc(C=C2Oc3ccc(C(=O)O)cc3C2=O)c1 [5-carboxy-2-(3'-isopropoxy-benzylidene)-2H-benzofuran-3-one]	> 800
COc1cccc(C=C2Oc3ccc(C(=O)O)cc3C2=O)c1 [5-carboxy-2-(3'-methoxy-benzylidene)-2H-benzofuran-3-one]	> 800
COc1ccc(C=C2Oc3ccc(C(=O)O)cc3C2=O)cc1 [5-carboxy-2-(4'-methoxy-benzylidene)-2H-benzofuran-3-one]	> 800
COc1cc(C=C2Oc3ccc(C(=O)O)cc3C2=O)cc(OC)c1OC [K 13364, 5-carboxy-2-(3',4',5'-trimethoxy-benzylidene)-2H-benzofuran-3-one]	> 800
COc1ccc(OC)c(C=C2Oc3ccc(C(=O)O)cc3C2=O)c1 [K 13383, 5-carboxy-2-(2',5'-dimethoxy-benzylidene)-2H-benzofuran-3-one]	> 800
COc1ccc(C=C2Oc3ccc(C(=O)O)cc3C2=O)c(OC)c1OC [K 13422, 5-carboxy-2-(2',3',4'-trimethoxy-benzylidene)-2H-benzofuran-3-one]	> 800
COc1ccc(OC(C)C)c(C=C2Oc3ccc(C(=O)O)cc3C2=O)c1 [K 13432, 5-carboxy-2-(2'-isopropoxy-5'-methoxy-benzylidene)-2H-benzofuran-3-one]	> 800
